Consider 53 compounds from patent US8501713B2, “Drug combinations for the treatment of duchenne muscular dystrophy” (Summit Corporation PLC, priority 2007, dated 2013).

SMILES strings stand for the structures.

One test concerns Utrophin A promoter linked to a luciferase reporter gene. Kind of test: Luciferase reporter assay (murine H2K cells). Format: cell-based. To be noted: Mus musculus, H2K mdx, luciferase level relative to control; H2K/mdx/Utro A reporter cells; compound 10 μM final concentration; read-out: Activity. Put shortly: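 Immortalized mdx mouse H2K myoblasts stably carrying a ~5 kb utrophin A promoter–luciferase construct, kept at 33° C, 10% CO2. After 24 hrs plating, compound added at 10 μM final for 48 hrs; luciferase light output read after in-situ lysis.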
In general terms: In a reporter assay the amount or activity of a reporter protein is the signal.
`O=C(Nc1ccc2oc(-c3cccc(Cl)c3Cl)nc2c1)c1cccc(Cl)c1Cl` [Example 376, 2,3-dichloro-N-(2-(2,3-dichlorophenyl)benzo[d]oxazol-5-yl)benzamide]: the activity at 10 µM was below 200%.

`CC(C)C(=O)Nc1ccc2nc(-c3ccc(Cl)cc3)oc2c1` [Example 255, N-(2-(4-chlorophenyl)benzo[d]oxazol-6-yl)isobutyramide]: the activity at 10 µM was above 401%.

Take `COc1ccc(-c2nc3cc(NC(=O)c4cccs4)ccc3o2)cc1` [Example 141, N-(2-(4-methoxyphenyl)benzo[d]oxazol-5-yl)thiophene-2-carboxamide]: the activity at 10 µM is below 200%.

In the case of `CCS(=O)(=O)c1ccc2oc(-c3ccccc3Cl)nc2c1` [Example 298, 2-(2-Chlorophenyl)-5-(ethylsulfonyl)benzo[d]oxazole], the activity at 10 µM was in the range of 201 to 300%.

With `CN(C)c1cccc(-c2nc3cc(N)ccc3o2)c1` [Example 197, 2-(3-(dimethylamino)phenyl)benzo[d]oxazol-5-amine], the activity at 10 µM is below 200%.

On to `Cc1ccc(-c2nc3c(NC(=O)C(C)C)cccc3o2)cc1` [Example 236, N-(2-p-tolylbenzo[d]oxazol-4-yl)isobutyramide], for which the activity at 10 µM is below 200%.

On to `O=C(Nc1ccc2oc(-c3ccccc3)nc2c1)c1cccs1` [Example 37, N-(2-phenylbenzo[d]oxazol-5-yl)thiophene-2-carboxamide], for which the activity at 10 µM fell in the range of 201 to 300%.

With `Nc1ccc2sc(-c3cccc(Cl)c3)nc2c1` [Example 283, 2-(3-chlorophenyl)benzo[d]thiazol-5-amine], the activity at 10 µM was above 401%.

On to `Cc1ccc(CSc2nc3cc([N+](=O)[O-])ccc3o2)cc1` [Example 382, 2-(4-methylbenzylthio)-5-nitrobenzo[d]oxazole], for which the activity at 10 µM is below 200%.

Regarding `CC(C)C(=O)Nc1ccc2oc(-c3ccccc3Cl)nc2c1` [Example 230, N-(2-(2-chlorophenyl)benzo[d]oxazol-5-yl)isobutyramide], the activity at 10 µM is above 401%.

As to `CCCC(=O)Nc1ccc2oc(-c3ccccc3F)nc2c1` [Example 242, N-(2-(2-fluorophenyl)benzo[d]oxazol-5-yl)butyramide], the activity at 10 µM was below 200%.

Regarding `Clc1ccc2nc(-c3ccncc3)oc2c1` [Example 331, 6-chloro-2-(pyridin-4-yl)benzo[d]oxazole], the activity at 10 µM is below 200%.

With `CC(C)S(=O)(=O)Nc1ccc2oc(-c3ccccc3)nc2c1` [Example 220, N-(2-phenylbenzo[d]oxazol-5-yl)propane-2-sulfonamide], the activity at 10 µM lay in the range of 201 to 300%.

For `O=[N+]([O-])c1ccc2nc(-c3ccccn3)oc2c1` [Example 223, 6-nitro-2-(pyridin-2-yl)benzo[d]oxazole], the activity at 10 µM is below 200%.

Regarding `CC(C)S(=O)(=O)c1ccc2oc(-c3ccc(Cl)c(Cl)c3)nc2c1` [Example 434, 2-(3,4-dichlorophenyl)-5-(isopropylsulfonyl)benzo[d]oxazole], the activity at 10 µM lay in the range of 301 to 400%.

With `CCS(=O)(=O)c1ccc2oc(-c3ccc(C4CCCCC4)cc3)nc2c1` [Example 425, 2-(4-cyclohexylphenyl)-5-(ethylsulfonyl)benzo[d]oxazole], the activity at 10 µM was below 200%.

Consider `NC(=O)c1ccc2oc(-c3ccc(Cl)cc3)nc2c1` [Example 264, 2-(4-chlorophenyl)benzo[d]oxazole-5-carboxamide], for which the activity at 10 µM was above 401%.

With `CN(C)c1ccc(C(=O)Nc2ccc3oc(-c4ccccc4)nc3c2)cc1` [Example 27, 4-(dimethylamino)-N-(2-phenylbenzo[d]oxazol-5-yl)benzamide], the activity at 10 µM is below 200%.

Consider `CCS(=O)(=O)c1ccc2oc(-c3ccccc3)nc2c1` [Example 84, 5-(ethylsulfonyl)-2-phenylbenzo[d]oxazole], for which the activity at 10 µM lay in the range of 201 to 300%.

Regarding `CCCNC(=O)c1ccc2oc(-c3ccc(C)cc3)nc2c1` [Example 177, N-propyl-2-p-tolylbenzo[d]oxazole-5-carboxamide], the activity at 10 µM is above 401%.

For the compound `COc1ccc(-c2nc3cc(NC(=O)C(C)C)ccc3o2)cc1` [Example 139, N-(2-(4-methoxyphenyl)benzo[d]oxazol-5-yl)isobutyramide], the activity at 10 µM lay within 201 to 300%.

Consider `CC(C)C(=O)Nc1ccc2oc(-c3cccc(Cl)c3)nc2c1` [Example 231, N-(2-(3-chlorophenyl)benzo[d]oxazol-5-yl)isobutyramide], for which the activity at 10 µM is above 401%.

`CCCC(=O)Nc1ccc2oc(-c3ccc(C)cc3)nc2c1` [Example 116, N-(2-p-tolylbenzo[d]oxazol-5-yl)butyramide]: the activity at 10 µM was above 401%.

Regarding `CCS(=O)(=O)c1ccc2oc(-c3ccc4c(c3)CCCC4)nc2c1` [Example 444, 5-(ethylsulfonyl)-2-(5,6,7,8-tetrahydronaphthalen-2-yl)benzo[d]oxazole], the activity at 10 µM is 301 to 400%.

Turning to `CCCC(=O)Nc1ccc2oc(C3CCCCC3)nc2c1` [Example 249, N-(2-cyclohexylbenzo[d]oxazol-5-yl)butyramide], the activity at 10 µM is below 200%.

For the compound `CCS(=O)(=O)c1ccc2oc(-c3ccc4cc(F)ccc4c3)nc2c1` [Example 431, 5-(ethylsulfonyl)-2-(6-fluoronaphthalen-2-yl)benzo[d]oxazole], the activity at 10 µM was below 200%.

On to `CCCc1ccc(-c2nc3cc(C(=O)O)ccc3o2)cc1` [Example 108, 2-(4-propylphenyl)benzo[d]oxazole-5-carboxylic acid], for which the activity at 10 µM was below 200%.

For the compound `CCC(=O)Nc1ccc2oc(-c3cccnc3)nc2c1` [Example 53, N-(2-(pyridin-3-yl)benzo[d]oxazol-5-yl)propionamide], the activity at 10 µM was below 200%.

As to `COC(=O)c1ccc(-c2ccc3oc(-c4ccc(Cl)cc4)nc3c2)cc1` [Example 287, methyl 4-(2-(4-chlorophenyl)benzo[d]oxazol-5-yl)benzoate], the activity at 10 µM was below 200%.

In the case of `CC(C)C(=O)Nc1ccc2oc(-c3ccc(Cl)cc3)cc2c1` [Example 414, 2-(4′-chlorophenyl)-5-isobutyramido-benzofuran], the activity at 10 µM was below 200%.

Consider `CC(C)C(=O)Nc1ccc2oc(-c3ccc(F)cc3)nc2c1` [Example 258, N-(2-(4-fluorophenyl)benzo[d]oxazol-5-yl)isobutyramide], for which the activity at 10 µM is 301 to 400%.

With `CC(=O)Nc1ccccc1-c1ccc2oc(-c3ccc(Cl)cc3)nc2c1` [Example 294, N-(2-(2-(4-chlorophenyl)benzo[d]oxazol-5-yl)phenyl)acetamide], the activity at 10 µM is below 200%.

As for `Cc1ccc(-c2nc3cc(C)c(C)cc3o2)cc1` [Example 215, 5,6-dimethyl-2-p-tolylbenzo[d]oxazole], the activity at 10 µM is above 401%.

As to `CC(C)C(=O)Nc1ccc2oc(-c3cccc(Cl)c3Cl)nc2c1` [Example 273, N-(2-(2,3-dichlorophenyl)benzo[d]oxazol-5-yl)isobutyramide], the activity at 10 µM was above 401%.

For `CC(C)C(=O)Nc1ccc2oc(-c3ccccc3)nc2c1` [Example 12, N-(2-phenylbenzo[d]oxazol-5-yl)isobutyramide], the activity at 10 µM lay within 201 to 300%.

The test is the same for the next values; noted with them: luciferase level relative to control; H2K/mdx/Utro A reporter cells; compound 10 μM final concentration.
With `CC(=O)c1ccc2oc(-c3ccc(Cl)c(Cl)c3)nc2c1` [Example 453, 1-(2′-(3″,4″-Dichlorophenyl)benzo[d]oxazol-5′-yl)ethanone], the Activity entry is reported as “++++ (Above 401% relative to control)”.

Still in this test, the particulars now being: luciferase reporter assay in murine H2K cells; classified relative to control.
As to `CCC(C)c1ccc2oc(-c3ccc(N)cc3)nc2c1` (centres unmarked) [Example 609], the Activity entry is “+++ (Between 301% and 400% relative to control)”.

As for `Nc1ccc(-c2nc3ccccc3[nH]2)cc1` [Example 475], the Activity result is listed as “+ (Up to 200% relative to control)”.

Regarding `COc1ccc(-c2nc3ccccc3s2)cc1NC(C)=O` [Example 542], the Activity entry was “++ (Between 201% and 300% relative to control)”.

In the case of `CN(C)c1ccc(-c2nc3ccccc3o2)cc1` [Example 486], the Activity entry is “+ (Up to 200% relative to control)”.

Turning to `COc1ccc(OCc2nc3ccccc3[nH]2)cc1` [Example 473], the Activity entry was “++ (Between 201% and 300% relative to control)”.

On to `CCc1ccc2oc(-c3cc(N)ccc3O)nc2c1` [Example 551], for which the Activity entry is given as “+ (Up to 200% relative to control)”.

On to `CCCc1nc2cc(S(=O)(=O)CC)ccc2o1` [Example 571], for which the Activity result is given as “+ (Up to 200% relative to control)”.

Regarding `O=C(Nc1ccc2c(c1)OCO2)c1sc2ccccc2c1Cl` [Example 618], the Activity entry was “++++ (Above 401% relative to control)”.

Take `Cc1ccc2nc(-c3ccc(O)cc3)sc2c1` [Example 643]: the Activity entry is “+++ (Between 301% and 400% relative to control)”.

On to `Cc1ccc2nc(-c3ccc(C(F)(F)F)cc3)oc2c1` [Example 611], for which the Activity result is “+++ (Between 301% and 400% relative to control)”.

As to `Cc1cc2nc(-c3cc(N)ccc3Cl)oc2cc1C` [Example 646], the Activity result was “+++ (Between 301% and 400% relative to control)”.

As for `Cc1ccc2oc(-c3cc(NC(=O)c4cncc(Br)c4)ccc3O)nc2c1` [Example 684], the Activity result was “++ (Between 201% and 300% relative to control)”.

Turning to `Cc1ccc2nc(-c3ccc(NC(=O)C(C)C)cc3)oc2c1` [Example 564], the Activity result is recorded as “+ (Up to 200% relative to control)”.

With `CCc1nc2cc(S(=O)(=O)CC)ccc2o1` [Example 572], the Activity result is given as “+ (Up to 200% relative to control)”.

With `Cn1c(-c2ccc(Cl)cc2)nc2ccccc21` [Example 541], the Activity entry is “++ (Between 201% and 300% relative to control)”.

Consider `CC(=O)Oc1ccc(C(=O)Nc2ccc(-c3nc4ccccc4[nH]3)cc2)cc1` [Example 655], for which the Activity result is “+++ (Between 301% and 400% relative to control)”.

As for `Cc1ccc(-c2nc3ccccc3[nH]2)cc1NC(=O)C(F)(F)F` [Example 568], the Activity result was “+++ (Between 301% and 400% relative to control)”.
